Results taken from US20140234350A1, “OVARIAN CANCER VACCINES AND VACCINATION METHODS” (Cedars-Sinai Medical Center, priority 2013, published 2014).

tested on: antigen-specific CTLs (CD8+ T cells) against T2 cells pulsed with CD133 HLA-A2 peptides; test: IFN-γ ELISPOT assay of antigen-specific T cell response; format: cell-based, human; conditions: peptide-induced CTLs co-cultured with T2 cells pulsed with 10 μg/ml of peptides for 20 hours, compared with T2 control (no peptides); FIG. 3
Procedure: To test this hypothesis, effector CD8^+ T cells were isolated and co-cultured with HLA-A2+ DC pulsed with CD133 peptides to induce antigen-specific CTLs. Antigens-specific T cell responses were evaluated by an IFN-γ ELISPOT assay.
Human monocyte-derived DC was generated using previously described methods. Briefly, monocytes were isolated from PBMC by magnetic immunoselection using EasySep human monocyte enrichment kit (Stem Cell Technologies) in accordance with the manufacturer's instructions and then cultured at […] in 20 ml of GMP CellGenix DC serum-free medium (Cat#20801-0500, Cellgenix) supplemented with 1000 unit/ml of recombinant human GM-CSF (Cat#AF-300-03, Peprotech, Inc) and recombinant human IL-4(Cat# AF-200-04, Peprotech, Inc). Cells were harvested after 3 or 6 days of culture. The DCs were washed and plated in 6-well plates at a concentration of 5×10^6 cells/well IFN-γ (1000 unit/ml) and monophosphoryl lipid A (MPLA, 20-50 μg/ml) was added into the wells to mature the DC for 24 hr or 48 hrs. Prior to some assays, DC was frozen and stored into liquid nitrogen.
In order to evaluate antigen-specific immune responses, CD8^+ T cells were isolated from fresh or frozen apheresis by positive selection using Dynabeads® CD8 Positive Isolation Kit (Life Technologies, Grand Island, N.Y.) and co-cultured with autologous mDC for four weeks. DCs were added weekly. Briefly, mDC was pulsed with synthetic peptides ([…]) for 6-8 hours at 37° C., and then treated with 20 μg/ml Mitomycin C (Sigma-Aldrich, St. Louis, Mo.) for 25 min at 37° C. and 5% CO2. […]
Antigen-specific immune responses were evaluated by the IFN-γ Elispot kit (BD Biosciences) following previously described methods. […] The colored spots, representing cytokine-producing cells, were counted under a dissecting microscope. The results were evaluated by an automated ELISPOT reader system using KS ELISPOT 4.3 software.

Row | Sequence | antigen-specific T cell response (IFN-γ ELISPOT)
1 | FLLPALIFAV (listed as Homo sapiens) [CD133p804, CD133 HLA-A2 peptide, position 804-813] | can efficiently recognize T2 pulsed with these antigens and boost the T cell immune response
2 | ILSAFSVYV (listed as Homo sapiens) [CD133p405, CD133 HLA-A2 peptide, position 405-413] | can efficiently recognize T2 pulsed with these antigens and boost the T cell immune response
3 | YLQWIEFSI (listed as Homo sapiens) [CD133p753, CD133 HLA-A2 peptide] | can efficiently recognize T2 pulsed with these antigens and boost the T cell immune response
